Legend:
Assay in all cases: relative viability (nuclei count vs DMSO), 5 days (fraction); higher = more cells survive
Bortezomib + Luminespib = compound: CC(C)C[C@H](NC(=O)[C@H](Cc1ccccc1)NC(=O)c1cnccn1)B(O)O [Bortezomib] + CCNC(=O)c1noc(-c2cc(C(C)C)c(O)cc2O)c1-c1ccc(CN2CCOCC2)cc1 [Luminespib] (partner 0.01 µM)
Procedure, shortened: (§1)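 Medians of duplicate plates are given as relative viability. That measure is the nuclei count in treated wells divided by the count in vehicle wells. Counts were taken on 4× images of lung cancer cell lines in 1536-well plates, 5 days after pin-tool dosing the day after seeding with one drug alone or a fixed anchor-drug dose plus five library-drug doses (not always all listed) in √10 steps.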

[1] = compound: CC1=CC(=NN1)NC2=CC(=NC(=N2)/C=C/C3=CC=CC=C3)N4CCN(CC4)C + CC(=O)c1c(C)c2cnc(Nc3ccc(N4CCNCC4)cn3)nc2n(C2CCCC2)c1=O [Palbociclib] (partner 0.5 µM)
Procedure, shortened: as §1

Bortezomib + Linsitinib = compound: CC(C)C[C@H](NC(=O)[C@H](Cc1ccccc1)NC(=O)c1cnccn1)B(O)O [Bortezomib] + C[C@]1(O)C[C@@H](c2nc(-c3ccc4ccc(-c5ccccc5)nc4c3)c3c(N)nccn32)C1 [Linsitinib] (partner 1 µM)
Procedure, shortened: as §1

Bortezomib + OSI-027 = compound: CC(C)C[C@H](NC(=O)[C@H](Cc1ccccc1)NC(=O)c1cnccn1)B(O)O [Bortezomib] + COc1cccc2cc(-c3nc([C@H]4CC[C@H](C(=O)O)CC4)n4ncnc(N)c34)[nH]c12 [OSI-027] (partner 0.5 µM)
Procedure, shortened: as §1

Row | Cell Line | relative viability (Bortezomib + Luminespib; first compound 0.0002 µM) | relative viability (Bortezomib + Luminespib; first compound 0.000632 µM) | relative viability (Bortezomib + Luminespib; first compound 0.002 µM) | relative viability (Bortezomib + Luminespib; first compound 0.006325 µM) | relative viability (Bortezomib + Luminespib; first compound 0.02 µM) | relative viability ([1]; first compound 0.08 µM) | relative viability ([1]; first compound 0.253 µM) | relative viability ([1]; first compound 0.8 µM) | relative viability ([1]; first compound 2.53 µM) | relative viability ([1]; first compound 8 µM) | relative viability (Bortezomib + Linsitinib; first compound 0.0002 µM) | relative viability (Bortezomib + Linsitinib; first compound 0.000632 µM) | relative viability (Bortezomib + Linsitinib; first compound 0.002 µM) | relative viability (Bortezomib + Linsitinib; first compound 0.006325 µM) | relative viability (Bortezomib + Linsitinib; first compound 0.02 µM) | relative viability (Bortezomib + OSI-027; first compound 0.0002 µM) | relative viability (Bortezomib + OSI-027; first compound 0.000632 µM) | relative viability (Bortezomib + OSI-027; first compound 0.002 µM) | relative viability (Bortezomib + OSI-027; first compound 0.006325 µM) | relative viability (Bortezomib + OSI-027; first compound 0.02 µM)
1 | LOU-NH91 | 0.352 | 0.312 | 0.279 | 0.252 | 0.231 | 0.55 | 0.516 | 0.5 | 0.56 | 0.407 | 0.995 | 0.86 | 0.383 | 0.285 | 0.294 | 0.688 | 0.68 | 0.581 | 0.298 | 0.251
2 | LU99A | 0.227 | 0.178 | 0.231 | 0.24 | 0.184 | 0.413 | 0.461 | 0.393 | 0.299 | 0.146 | 0.55 | – | 0.599 | 0.337 | 0.149 | 0.328 | 0.294 | 0.318 | 0.296 | 0.197
3 | LXF-289 | 0.68 | 0.598 | 0.639 | 0.138 | 0.074 | 0.632 | 0.63 | 0.602 | 0.568 | 0.304 | 0.946 | 0.968 | 1 | 0.0941 | 0.0652 | 0.773 | 0.754 | 0.803 | 0.0966 | 0.0619
4 | NCI-H23 | 0.224 | 0.208 | 0.208 | 0.18 | 0.169 | 0.483 | 0.505 | 0.409 | 0.158 | 0.123 | – | 0.574 | 0.586 | 0.276 | 0.114 | 0.579 | 0.335 | 0.542 | 0.282 | 0.138
